The record followed here is US10851115B2, “Heterocyclic compounds as RSV inhibitors” (Enanta Pharmaceuticals, Inc., priority 2017, dated 2020).

Where only a bound is given, the exact number is not on record here.

For this test, the system named is Human RSV-A (“Long” strain). As to the kind of experiment: RSV in vitro cytoprotection assay in HEp-2 cells (ATPlite readout). The settings on record: human respiratory syncytial virus, 96 h; HEp-2 cells, 4-day incubation, ATPlite; read-out: Human RSV-A (“Long” strain) EC50. The test is classed as cell-based. The text has this: RSV is a single stranded negative sense RNA virus that causes respiratory tract infections which can be dangerous to infants, the elderly, and immunosuppressed individuals. Currently there is no vaccine, and therapeutic options are both costly and of limited effectiveness. These approved treatments are Ribavirin, and Palivizumab/Synagis (a monoclonal antibody). RSV has two genotypes, A and B, which differ primarily in the structure of the virus' surface “G” attachment protein. Our current primary screen focusses on RSV-A and uses an in vitro cytoprotection assay where compounds are added in 2-fold dilutions to cells which are then subjected to fully replicative viral particles. Cell viability is measured several days later along with separate measurements of compound cytotoxicity. This report focuses on the results of our most recent screening of compounds.
HEp-2 cells, (originally derived from tumors grown in irradiated-cortisonised weanling rats that had been injected with epidermoid carcinoma tissue from a person's larynx, but later found to be indistinguishable from HeLa cells by PCR DNA analysis), were used for the culturing of genotype A, “Long” strain RSV. Flasks were inoculated with RSV and viral stocks were collected once cytopathic effect (CPE) was greater than 90%. Viral stocks in 25% sucrose media were snap frozen using liquid nitrogen to increase viral stability. Viral stock titers were quantified by tissue culture infectious dose 50% (TCID50) using 8,000 cells per well and 3-fold viral dilutions across a 96-well plate, cultured for 4 days.
Following extensive parameter testing, the final assay is run as follows: HEp-2 cells are seeded into the inner 60 wells of a 96-well plate at 8,000 cells per well in a volume of 50 μL using Growth Media (DMEM without phenol red, 1% L-Glut, 1% Penn/Strep, 1% nonessential amino acids, 10% FBS). 2-Fold serial dilutions of control and test compounds are added to the wells in duplicate in a total volume of 25 μL. Viral stock is then added to the wells in a volume of 25 μL, bringing the total volume of each well to 100 μL. Each 96-well plate has a control column of 6 wells with cells and virus but no compound (negative control, max CPE), a column with cells but no compound or virus (positive control, minimum CPE), and a column with no cells or virus or compound (background plate/reagent control). The control wells with cells but no virus are given an additional 25 uL of growth media containing an equal quantity of sucrose as those wells receiving the viral stock in order to keep consistent in media and volume conditions. The outer wells of the plate are filled with 125 μL of growth media to act as a thermal and evaporative moat around the test wells. Following a 4-day incubation period, the plates are read using ATPlite (50 uL added per well), which quantifies the amount of ATP (a measure of cell health) present in each well. Assay plates are read using the Envision luminometer. In parallel, cytotoxicity is examined on an additional 96-well plate treated in an identical manner, but substituting the 25 μL of viral stock for 25 μL of growth media. […] EC50 ranges are as follows: A<0.01 μM; B 0.01-0.05 μM; C>0.05 μM.
Background: ATP-based viability assays read luminescence as a measure of living cells.
Broadly, the EC50 is the concentration giving half of the maximal effect. Consider `Cc1cnc(N2CC3(CCOCC3)C2)c(C(=O)Nc2ccc(C(=O)N3CCc4cc(C(=O)Nc5ncccc5C)sc4-c4ncccc43)cc2)c1` [Example 22], for which the half-maximal effective concentration (EC50) was less than 10 nM.

For the molecule `Cc1cnc(N2CC3(CCOCC3)C2)c(C(=O)Nc2ccc(C(=O)N3CCc4c(sc(-c5nc6ccc(F)cc6[nH]5)c4F)-c4ncccc43)cc2)c1` [Example 79], the EC50 is less than 10 nM.

As to `O=C(Nc1c(Cl)cccc1Cl)c1cc2c(o1)-c1ncc(F)cc1N(C(=O)c1ccc(NC(=O)c3cc4c(nc3N3CC5(CCOCC5)C3)CCC4)cc1)CC2` [Example 105], the half-maximal effective concentration (EC50) is less than 10 nM.

For the molecule `Cc1cnc(N2CCC3(CC2)COC3)c(C(=O)Nc2ccc(C(=O)N3CCc4cc(C(=O)Nc5c(F)cccc5C(F)(F)F)sc4-c4ncccc43)cc2)c1` [Example 94], the EC50 is 10 to 50 nM.

On to `Cc1cnc(N2CC3(CCOCC3)C2)c(C(=O)Nc2ccc(C(=O)N3CCc4cc(C(=O)Nc5c(F)cccc5C(F)(F)F)oc4-c4ncc(F)cc43)cc2)c1` [Example 102], for which the EC50 lay in the range of 10 to 50 nM.

For the molecule `O=C(Nc1ccc(C(=O)N2CCc3cc(-c4nc5ccccc5[nH]4)sc3-c3cnccc32)cc1)c1cccnc1N1CC2(CCOCC2)C1` [Example 53], the EC50 is more than 50 nM.

As for `Cc1cnc(N2CC3(CCOCC3)C2)c(C(=O)Nc2ccc(C(=O)N3CCc4cc(C(=O)NCc5cccnc5)sc4-c4ncccc43)cc2)c1` [Example 36], the EC50 lay in the range of 10 to 50 nM.

For `Cc1cccc(F)c1NC(=O)c1cc2c(s1)-c1cccnc1N(C(=O)c1ccc(NC(=O)c3cccnc3N3CC4(CCOCC4)C3)cc1)CC2` [Example 50], the EC50 is more than 50 nM.

`COCC1(NC(=O)c2cc3c(s2)-c2ncccc2N(C(=O)c2ccc(NC(=O)c4cc(C)cnc4N4CC5(CCOCC5)C4)cc2)CC3)CCC1` [Example 25]: the EC50 is less than 10 nM.

Consider `Cc1cnc(N2CCC3(CC2)COC3)c(C(=O)Nc2ccc(C(=O)N3CCc4cc(C(=O)Nc5c(C)cccc5F)sc4-c4ncccc43)cc2)c1` [Example 98], for which the EC50 was less than 10 nM.

On to `Cc1ccc(C(=O)Nc2ccc(C(=O)N3CCc4c(sc(C(=O)Nc5c(F)cccc5Cl)c4F)-c4ncccc43)cc2)c(N2CC3(CCOCC3)C2)n1` [Example 86], for which the concentration for a half-maximal effect (EC50) was less than 10 nM.

As to `Cc1cnc(N2CC3(CCOCC3)C2)c(C(=O)Nc2ccc(C(=O)N3CCc4c(sc(C(=O)Nc5c(F)cccc5Cl)c4F)-c4ncccc43)cc2)c1` [Example 76], the EC50 is less than 10 nM.

For the molecule `Cc1cnc(N2CC3(CCOCC3)C2)c(C(=O)Nc2ccc(C(=O)N3CCc4cc(C(=O)Nc5c(Cl)cncc5Cl)sc4-c4ncccc43)cc2)c1` [Example 37], the EC50 is less than 10 nM.

`O=C(Nc1c(F)cccc1Cl)c1cc2c(s1)-c1ccncc1N(C(=O)c1ccc(NC(=O)c3cccnc3N3CC4(CCOCC4)C3)cc1)CC2` [Example 2]: the concentration for a half-maximal effect (EC50) fell in the range of 10 to 50 nM.

Take `Cc1cnc(N2CC3(CCOCC3)C2)c(C(=O)Nc2ccc(C(=O)N3CCc4c(sc(-c5nc6ccccc6[nH]5)c4F)-c4ncccc43)cc2)c1` [Example 71]: the concentration giving a half-maximal response (EC50) is less than 10 nM.

Turning to `O=C(Nc1c(F)cccc1F)c1cc2c(s1)-c1cnccc1N(C(=O)c1ccc(NC(=O)c3cccnc3N3CC4(CCOCC4)C3)cc1)CC2` [Example 51], the 50% effective concentration (EC50) lay within 10 to 50 nM.

With `Cc1cnc(N2CCC3(CC2)COC3)c(C(=O)Nc2ccc(C(=O)N3CCc4cc(C(=O)Nc5ncccc5F)sc4-c4ncccc43)cc2)c1` [Example 95], the half-maximal effective concentration (EC50) was 10 to 50 nM.

Consider `Cc1cnc(N2CC3(CCOCC3)C2)c(C(=O)Nc2ccc(C(=O)N3CCc4c(sc(C(=O)Nc5c(C)cccc5C#N)c4F)-c4ncccc43)cc2)c1` [Example 75], for which the concentration giving a half-maximal response (EC50) was less than 10 nM.

Regarding `Cc1ccc(C(=O)Nc2ccc(C(=O)N3CCc4c(sc(-c5nc6ccccc6[nH]5)c4F)-c4ncccc43)cc2)c(N2CC3(CCOCC3)C2)n1` [Example 82], the EC50 was less than 10 nM.

For `Cc1cnc(N2CC3(CCOCC3)C2)c(C(=O)Nc2ccc(C(=O)N3CCc4cc(C(=O)Nc5cccnn5)sc4-c4ncccc43)cc2)c1` [Example 31], the EC50 is less than 10 nM.

`Cc1cnc(N2CC3(CCOCC3)C2)c(C(=O)Nc2ccc(C(=O)N3CCc4cc(-c5ccc[nH]c5=O)sc4-c4ncc(F)cc43)cc2)c1` [Example 110]: the EC50 lay within 10 to 50 nM.

In the case of `Cc1cnc(N2CC3(CCOCC3)C2)c(C(=O)Nc2ccc(C(=O)N3CCc4cc(C(=O)NCc5ccccn5)sc4-c4ncccc43)cc2)c1` [Example 26], the concentration giving a half-maximal response (EC50) was less than 10 nM.

Take `Cc1ccc(C(=O)Nc2ccc(C(=O)N3CCc4cc(-c5nc6cccc(Cl)c6[nH]5)sc4-c4ncccc43)cc2)c(N2CC3(CCOCC3)C2)n1` [Example 43]: the EC50 is 10 to 50 nM.

As for `Cc1cnc(N2CC3(CCOCC3)C2)c(C(=O)Nc2ccc(C(=O)N3CCc4cc(C(=O)Nc5cnccc5C)sc4-c4ncccc43)cc2)c1` [Example 33], the concentration for a half-maximal effect (EC50) is less than 10 nM.

Take `Cc1cnc(N2CC3(CCOCC3)C2)c(C(=O)Nc2ccc(C(=O)N3CCc4cc(C(=O)Nc5cccnc5C)sc4-c4ncccc43)cc2)c1` [Example 32]: the EC50 was less than 10 nM.

For the molecule `Cc1cnc(N2CC3(CCOCC3)C2)c(C(=O)Nc2ccc(C(=O)N3CCc4cc(C(=O)Nc5ncco5)sc4-c4ncccc43)cc2)c1` [Example 30], the EC50 is 10 to 50 nM.

Consider `Cc1cnc(N2CC3(CCOCC3)C2)c(C(=O)Nc2ccc(C(=O)N3CCc4cc(C(=O)Nc5c(F)cccc5Cl)oc4-c4ncccc43)cc2)c1` [Example 117], for which the concentration for a half-maximal effect (EC50) lay within 10 to 50 nM.

As for `O=C(Nc1ccc(C(=O)N2CCc3cc(-c4nc5cccc(C(F)(F)F)c5[nH]4)sc3-c3ncc(F)cc32)cc1)c1cccnc1N1CC2(CCOCC2)C1` [Example 60], the half-maximal effective concentration (EC50) is 10 to 50 nM.

On to `Cc1cnc(N2CC3(CCOCC3)C2)c(C(=O)Nc2ccc(C(=O)N3CCc4cc(C(=O)Nc5c(Cl)cccc5Cl)sc4-c4ncccc43)cc2)c1` [Example 12], for which the EC50 is less than 10 nM.

On to `Cc1cnc(N2CC3(CCOCC3)C2)c(C(=O)Nc2ccc(C(=O)N3CCc4c(sc(C(=O)Nc5ncccc5F)c4F)-c4ncccc43)cc2)c1` [Example 72], for which the EC50 is less than 10 nM.

As to `Cc1cnc(N2CC3(CCOCC3)C2)c(C(=O)Nc2ccc(C(=O)N3CCc4cc(C(=O)Nc5c(F)cc(F)cc5F)sc4-c4cc(C)sc43)cc2)c1` [Example 129], the EC50 was more than 50 nM.

`Cc1cnc(N2CC3(CCOCC3)C2)c(C(=O)Nc2ccc(C(=O)N3CCc4cc(-c5nc6ccccc6[nH]5)oc4-c4ncc(F)cc43)cc2)c1` [Example 103]: the concentration for a half-maximal effect (EC50) is 10 to 50 nM.

`Cc1cnc(N2CC3(CCOCC3)C2)c(C(=O)Nc2ccc(C(=O)N3CCc4cc(-c5nc6ccccc6[nH]5)sc4-c4ncc(C)cc43)cc2)c1` [Example 137]: the half-maximal effective concentration (EC50) is less than 10 nM.

For `Cc1cnc(N2CC3(CCOCC3)C2)c(C(=O)Nc2ccc(C(=O)N3CCc4cc(C(=O)Nc5c(F)cccc5F)oc4-c4ncc(F)cc43)cc2)c1` [Example 99], the 50% effective concentration (EC50) was less than 10 nM.

Regarding `Cc1cnc(N2CC3(CCOCC3)C2)c(C(=O)Nc2ccc(C(=O)N3CCc4cc(-c5nc6cccc(F)c6[nH]5)sc4-c4cc(C)sc43)cc2)c1` [Example 131], the concentration for a half-maximal effect (EC50) was in the range of 10 to 50 nM.

In the case of `Cc1cnc(N2CC3(CCOCC3)C2)c(C(=O)Nc2ccc(C(=O)N3CCc4c(sc(C(=O)Nc5c(C)cccc5F)c4F)-c4ncccc43)cc2)c1` [Example 73], the EC50 was less than 10 nM.

Consider `Cc1cnc(N2CC3(CCOCC3)C2)c(C(=O)Nc2ccc(C(=O)N3CCc4cc(-c5nc6ccccc6[nH]5)sc4-c4ncc(F)cc43)cc2)c1` [Example 58], for which the concentration giving a half-maximal response (EC50) is less than 10 nM.

Regarding `Cc1ccc(C(=O)Nc2ccc(C(=O)N3CCc4cc(NC(=O)c5c(F)cccc5F)sc4-c4ncccc43)cc2)c(N2CC3(CCOCC3)C2)n1` [Example 157], the EC50 was less than 10 nM.

Turning to `Cc1ccc(C(=O)Nc2ccc(C(=O)N3CCc4cc(NC(=O)c5c(C)cccc5F)sc4-c4ncccc43)cc2)c(N2CC3(CCOCC3)C2)n1` [Example 158], the concentration for a half-maximal effect (EC50) is 10 to 50 nM.

Consider `O=C(Nc1c(F)cc(F)cc1F)c1cc2c(s1)-c1ncc(F)cc1N(C(=O)c1ccc(NC(=O)c3cccnc3N3CC4(CCOCC4)C3)cc1)CC2` [Example 56], for which the half-maximal effective concentration (EC50) is less than 10 nM.

For the molecule `Cc1cnc(N2CCC3(CC2)COC3)c(C(=O)Nc2ccc(C(=O)N3CCc4cc(C(=O)Nc5c(F)cccc5F)sc4-c4ncccc43)cc2)c1` [Example 89], the EC50 was less than 10 nM.

For the molecule `Cc1cnc(N2CC3(CCOCC3)C2)c(C(=O)Nc2ccc(C(=O)N3CCc4cc(NC(=O)c5c(C)cccc5F)sc4-c4ncccc43)cc2)c1` [Example 152], the concentration for a half-maximal effect (EC50) is less than 10 nM.
